Among the data in patent publication US20260159519A1, “IMIDAZOPYRIDAZINE SUBSTITUTED BENZENE RING DERIVATIVE, PREPARATION METHOD, PHARMACEUTICAL COMPOSITION AND USE” (SHANGHAI SIMR BIOTECHNOLOGY CO., LTD., priority 2022, published 2026) are Ki and activation values, retold here.

In assay [1] the target is T1, human α2-GABAA receptor (BZD site, membrane protein of HEK293 cells) (Homo sapiens, UniProt P18507+P47869).
T1 construct: expressed in transfected cells
The assay can be described thus: Radioligand competitive binding assay (3H-flunitrazepam) at the BZD site of the α2-GABAA receptor. Particulars: competition with 1 nM 3H-flunitrazepam; Ki calculated from IC50; read-out: α2 Ki. The text has this:
(§1) α subunit, β subunit, and γ subunit are essential for the formation of a complete and functional GABAA receptor. In this example of the present disclosure, HEK293 cells stably expressing the human α1-GABAA receptor (α1-GABAAR) and α2-GABAA receptor (α2-GABAAR) were constructed and separately selected using the lipofection method (Felgner, P. L., et al. Proceedings of the National Academy of Sciences, 1987, 84: 7413-7417). The α1-GABAAR-HEK293 cell model simultaneously expressed the α1 subunit (for protein sequence, see GenBank accession No.: NM_000806.5), the […] (for protein sequence, see GenBank accession No.: NM_000814.5), and the […] (for protein sequence, see GenBank accession No.: NM_000816.3). The α2-GABAAR-HEK293 cell model simultaneously expressed the α2 subunit (for protein sequence, see GenBank accession No.: NM_000807.4), the β3 subunit (for protein sequence, see GenBank accession No.: NM_000814.5), and the γ2 subunit (for protein sequence, see GenBank accession No.: NM_000816.3).
(§2) The above cell lines were subcultured. The α2-GABAAR-HEK293 cells were expanded for testing the affinity of compounds to the benzodiazepine (BZD) site of the GABAA receptor. During the passage process, some of the α1-GABAAR-HEK293 cells and α2-GABAAR-HEK293 cells were suspended and plated on a slide pre-treated with Poly-D-Lysine for electrophysiological testing (method referenced from patent CN107344936A, paragraph 0586).
The affinity of the compounds for the α2-GABAA receptor was determined by competing for the binding of ^3H-flunitrazepam (isotope ^3H-labelled flunitrazepam) to the BZD site on the membrane protein of HEK293 cells stably expressing the human α2-GABAAR.
Membrane preparation: Cells were suspended in 50 mM Tris-HCl buffer (pH=7.4), homogenized 10 times for 20 seconds with a homogenizer on ice, and centrifuged at 1000 g for 10 minutes at 4° C. The supernatant was taken, and the above steps were repeated. The supernatant was centrifuged at 4° C. (33800 g; Thermo, rotor: A27-8×50) for 60 minutes. The precipitate was resuspended in Tris buffer (50 mM Tris-HCl, 10 mM MgCl2, 0.5 mM EDTA, and 10% glycerol). The protein content was determined (BCA (bicinchoninic acid) protein quantification assay based on copper ion reduction, with a BCA kit purchased from Pierce (Annoron (Beijing) Biotechnology Co., Ltd.)), and 1 mL aliquots were prepared and stored at −80° C.
Radioligand competitive binding assay: This assay was performed in a 200 μL system (96-well plate) containing 100 μL of cell membrane. The concentration of ^3H-flunitrazepam was 1 nM, and the concentrations of the test compounds were in the range of […]. Flumazenil was used as a control. 1 μL of 2 mM flumazenil (final […]) was added to each low signal control (low control, LC) well, and 1 μL of dimethyl sulfoxide was added to each high signal control (high control, HC) well. The final concentration of target membrane protein was […]. All sample stock solutions of test compounds were 10 mM dimethyl sulfoxide solutions. All the samples were diluted to a concentration of 0.2 mM with dimethyl sulfoxide, and then subjected to a 4-fold serial dilution for a total of 8 working concentration gradients. The 96-well plate was sealed with a sealing membrane and then incubated on a shaker at room temperature for 1 hour. Meanwhile, a GF/C filter plate was soaked in plate soaking buffer (0.3% PEI (polyethyleneimine, purchased from Sigma-Aldrich, model: P314), stored at 4° C.) for at least 0.5 hours. After the binding incubation was completed, the cells were harvested onto the GF/C filter plate using a cell harvester and washed four times with plate washing buffer (50 mM Tris-HCl, pH 7.4, stored at 4° C.). After drying in an oven at 50° C. for 1 hour, the dried GF/C filter plate was bottom-sealed. The residual radioactivity on the filter membrane was detected by liquid scintillation counting.

Assay [2] addresses T2, human α1-GABAA receptor (α1-GABAAR-HEK293 cells) (Homo sapiens, UniProt P14867+P18507).
T2 construct: expressed in transfected cells
The assay can be described thus: Whole-cell patch-clamp electrophysiology, positive allosteric modulatory activity on α1-GABAA receptor. Particulars: read-out: α1-GABAA positive allosteric modulatory activity. Type of assay: cell-based.
Excerpt: as §1, §2
(§3) The positive regulatory activity of the test drugs on the α1-GABAA receptor and the α2-GABAA receptor was detected by the electrophysiological method. The specific method was as follows:
(§4) Compound concentration setting: The final concentration of the compounds used for screening was 100 nM. For cell lines expressing the α1-GABAA receptor, the concentration of GABA was 0.05 to 0.07 μM (approximately EC2-4). For cell lines expressing the α2-GABAA receptor, the concentration of GABA was 0.10 to 0.11 μM (approximately EC7-8). Electrophysiological testing was performed using the whole-cell patch-clamp technique, which can refer to the method reported in the literature (Nickolls, S. A., et al. British Journal of Pharmacology, 2018, 175: 708-725). The composition of the extracellular solution (ECS) for electrophysiology was as follows: 150 mM NaCl, 5 mM KCl, 2.5 mM CaCl2, 1 mM MgCl2, 10 mM HEPES, and 10 mM glucose (pH 7.4). The formulation of the intracellular solution (ICS) for electrophysiology was as follows: 140 mM CsCl, 11 mM EGTA, 10 mM HEPES, 2 mM CaCl2, 1 mM MgCl2, 4 mM MgATP, and 2 mM TEA (pH 7.3). GABA (γ-aminobutyric acid) powder was prepared into a mother liquor with pure water, which was then diluted in ECS. The compound was first prepared into a 4 mM mother liquor with dimethyl sulfoxide, which was then gradually diluted in the corresponding concentration of GABA-ECS. The solutions were freshly prepared prior to electrophysiological testing.
(§5) Electrophysiological signal acquisition was performed using an EPC 10 amplifier and PatchMaster software (HEKA) or an Axon 700B amplifier and Clampex software (AXON). The recording electrode was made through a drawing process using borosilicate glass, with an electrode resistance of 4 to 6 MΩ. Extracellular administration was performed using the ALA-VC-8PG™ system. A single, independently growing cell was selected. After the glass electrode formed a good seal with the cell, the membrane was ruptured to form the whole-cell configuration. The cell membrane potential was clamped at −60 mV and recorded in Gap-free mode. During the test, the extracellular solution was first applied extracellularly for approximately 20 seconds. After the baseline (Iprebaseline) stabilized, the extracellular solution was switched to GABA-ECS. At this point, the current induced by GABA (Igaba) could be detected. After approximately 10 to 20 seconds, when the current stabilized, the extracellular solution was switched to a mixture of the compound and GABA-ECS. […]

Assay [3] concerns the target T3, human α2-GABAA receptor (α2-GABAAR-HEK293 cells) (Homo sapiens, UniProt P18507+P47869).
T3 construct: expressed in transfected cells
The assay can be described thus: Whole-cell patch-clamp electrophysiology, positive allosteric modulatory activity on α2-GABAA receptor. In kind it is cell-based. Particulars: read-out: α2-GABAA positive allosteric modulatory activity.
Excerpt: as §1, §2, §3, §4, §5

In the case of `CCn1cnc2c(-c3ccc(F)c(-c4cc5cn(-c6ccccc6)nc5cc4OC)c3)cnnc21` [Example 101, 7-Ethyl-4-(4-fluoro-3-(6-methoxy-2-phenyl-2H-indazol-5-yl)phenyl)-7H-imidazo[4,5-c]pyridazine], the Ki in assay [1] was 4.46 nM. For the same compound, the results for the activation at 0.1 µM in assay [2] and in assay [3] were 56% and 157%, respectively.
`CCn1cnc2c(-c3ccc(F)c(-c4ccc5c(nnn5C5CC5)c4OC)c3)cnnc21` [Example 70, 4-(3-(1-Cyclopropyl-4-methoxy-1H-benzo[d][1,2,3]triazol-5-yl)-4-fluorophenyl)-7-ethyl-7H-imidazo[4,5-c]pyridazine]: the Ki in assay [1] was 0.5 nM. The values for the activation at 0.1 µM in assay [2] and in assay [3] were -27% and 90%, respectively.
On to `CCn1cnc2c(OC)c(-c3cc(-c4cnnc5c4ncn5CC)ccc3F)ccc21` [Example 119, 7-Ethyl-4-(3-(1-ethyl-4-methoxy-1H-benzo[d]imidazol-5-yl)-4-fluorophenyl)-7H-imidazo[4,5-c]pyridazine], for which the Ki in assay [1] was 15.4 nM. In addition, the activation at 0.1 µM in assay [2] is -10%; in assay [3] it was 86%.
Take `CCn1cnc2c(-c3ccc(F)c(-c4cc5cn([C@H]6CCN(C)C[C@@H]6F)nc5cc4OC)c3)cnnc21` (racemic) [Example 63, 7-Ethyl-4-(4-fluoro-3-(2-((3S,4S)-3-fluoro-1-methylpiperidin-4-yl)-6-methoxy-2H-indazol-5-yl)phenyl)-7H-imidazo[4,5-c]pyridazine]: the Ki in assay [1] is 3.51 nM. The activation at 0.1 µM in assay [2] was 37%; in assay [3], 81%.
Take `CCn1cnc2c(-c3ccc(F)c(-c4cc5c(cc4OC)N(C)C(=O)C(C)O5)c3)cnnc21` (stereo not drawn) [Example 26, 7-(5-(7-Ethyl-7H-imidazo[4,5-c]pyridazin-4-yl)-2-fluorophenyl)-6-methoxy-2,4-dimethyl-2H-benzo[b][1,4]oxazin-3(4H)-one]: the Ki in assay [1] was 8.95 nM. The figures for the activation at 0.1 µM in assay [2] and in assay [3] were 48% and 120%, respectively.
The matching figures for `CCn1cnc2c(-c3ccc(F)c(-c4cc5cn(C)nc5cc4OC)c3)cnnc21` [Example 141, 7-Ethyl-4-(4-fluoro-3-(6-methoxy-2-methyl-2H-indazol-5-yl)phenyl)-7H-imidazo[4,5-c]pyridazine]: 9.15 nM, 37% and 105%.
The matching figures for `CCn1cnc2c(-c3ccc(F)c(-c4cc5cc(COC)c(=O)n(C)c5cc4OC)c3)cnnc21` [Example 166, 6-(5-(7-Ethyl-7H-imidazo[4,5-c]pyridazin-4-yl)-2-fluorophenyl)-7-methoxy-3-(methoxymethyl)-1-methylquinolin-2(1H)-one]: 2.39 nM, 12% and 128%.
Regarding `CCn1cnc2c(-c3ccc(F)c(-c4cc5cn(C6CN(C)C6)nc5cc4OC)c3)cnnc21` [Example 117], in assay [1], the Ki was 15.2 nM. Moreover, the activation at 0.1 µM in assay [2] came out at 37%; in assay [3], 86%.
As to `CCn1cnc2c(-c3ccc(F)c(-c4ccc5c(ncn5C5COC5)c4OC)c3)cnnc21` [Example 115, 7-Ethyl-4-(4-fluoro-3-(4-methoxy-1-(oxetan-3-yl)-1H-benzo[d]imidazol-5-yl)phenyl)-7H-imidazo[4,5-c]pyridazine], the Ki in assay [1] is 16.4 nM. The figures for the activation at 0.1 µM in assay [2] and in assay [3] were -25% and 85%, respectively.
In the case of `CCn1cnc2c(-c3ccc(F)c(-c4cc5cn(C6CCN(C)CC6)nc5cc4OC)c3)cnnc21` [Example 99, 7-Ethyl-4-(4-fluoro-3-(6-methoxy-2-(1-methylpiperidin-4-yl)-2H-indazol-5-yl)phenyl)-7H-imidazo[4,5-c]pyridazine], the Ki in assay [1] was 4.31 nM. The figures for the activation at 0.1 µM in assay [2] and in assay [3] were -2% and 106%, respectively.
Regarding `CCn1cnc2c(-c3ccc(F)c(-c4ccc5c(nnn5C)c4OC)c3)cnnc21` [Example 81, 7-Ethyl-4-(4-fluoro-3-(4-methoxy-1-methyl-1H-benzo[d][1,2,3]triazol-5-yl)phenyl)-7H-imidazo[4,5-c]pyridazine], in assay [1], the Ki was 2.34 nM. Also, the results for the activation at 0.1 µM in assay [2] and in assay [3] were -25% and 83%, respectively.
For `CCn1cnc2c(-c3ccc(F)c(-c4cc5cc(C(C)=O)c(=O)n(C)c5cc4OC)c3)cnnc21` [Example 1, 3-Acetyl-6-(5-(7-ethyl-7H-imidazo[4,5-c]pyridazin-4-yl)-2-fluorophenyl)-7-methoxy-1-methylquinolin-2(1H)-one], the Ki in assay [1] was 6 nM. Besides, the figures for the activation at 0.1 µM in assay [2] and in assay [3] were 13% and 151%, respectively.
The matching figures for `CCN1C(=O)Cc2cc(-c3cc(-c4cnnc5c4ncn5CC)ccc3F)c(OC)cc21` [Example 167, 1-Ethyl-5-(5-(7-ethyl-7H-imidazo[4,5-c]pyridazin-4-yl)-2-fluorophenyl)-6-methoxyindol-2-one]: 13.9 nM, 35% and 125%.
